Source: patent US20250207103A1, “CYTOCOMPATIBLE HYDROGELS AND METHODS OF MAKING AND USING THE SAME” (The Trustees of Indiana University, priority 2022, published 2025)

Assays:
PCCs/CAFs = assay: effect of blebbistatin and Y-27632 on PCCs/CAFs encapsulated in viscoelastic hydrogels; assay type: cell-based, human; details: blebbistatin: 40 μM, Y-27632: 10 μM, Day 15
Text: To facilitate imaging, pancreatic cancer cells COLO-357 were stably transduced with mKate2, a red fluorescent protein (RFP), using INCUCYTE® Cytolight Lentivirus reagent, followed by puromycin selection. green fluorescent protein (GFP)-labelled human pancreatic cancer associated fibroblasts (1303-GFP-49-hT, or CAF) and RFP-labelled COLO-357 (PCC) were maintained in high glucose Dulbecco's modified eagle medium (DMEM, Gibco) containing 10% Fetal bovine serum (FBS, Corning) and 1% antibiotic-antimycotic (Gibco) at 37° C. with 5% CO2. Cells were trypsinized by 0.1% trypsin-ethylenediaminetetraacetic acid (trypsin-EDTA) (Gibco) for cell encapsulation. The cell density of CAF and PCC was kept at 1.6 million/mL (M/mL) and 400 thousand/mL (k/mL), respectively, in both single-encapsulated and co-encapsulated precursor solutions. The hydrogel precursor solution was similar to the aforementioned formulations, except that 3 wt % of GelSH was included to facilitate cell proliferation. Twenty-five μL precursor solution was cured under UV light (λ=365 nm, 5 mW/cm^2) in an opened 1 mL syringe for 2 minutes. […]
The cell viability of CAF in hydrogels was evaluated by staining with ethidium homodimer 3. The morphology of CAF in hydrogels was analyzed using F-actin (rhodamine phalloidin 100 nM, Cytoskeleton) and 4′,6-diamidino-2-phenylindole (DAPI) (1:1000, Anaspec) stained images. […]

CAFs = assay: effect of blebbistatin and Y-27632 on spreading of CAFs in viscoelastic hydrogels; assay type: cell-based, human; details: Y-27632: 10 μM; for F-actin polymerization in CAFs: blebbistatin: 40 μM, Day 15
Text: To facilitate imaging, pancreatic cancer cells COLO-357 were stably transduced with mKate2, a red fluorescent protein (RFP), using INCUCYTE® Cytolight Lentivirus reagent, followed by puromycin selection. green fluorescent protein (GFP)-labelled human pancreatic cancer associated fibroblasts (1303-GFP-49-hT, or CAF) and RFP-labelled COLO-357 (PCC) were maintained in high glucose Dulbecco's modified eagle medium (DMEM, Gibco) containing 10% Fetal bovine serum (FBS, Corning) and 1% antibiotic-antimycotic (Gibco) at 37° C. with 5% CO2. Cells were trypsinized by 0.1% trypsin-ethylenediaminetetraacetic acid (trypsin-EDTA) (Gibco) for cell encapsulation. The cell density of CAF and PCC was kept at 1.6 million/mL (M/mL) and 400 thousand/mL (k/mL), respectively, in both single-encapsulated and co-encapsulated precursor solutions. The hydrogel precursor solution was similar to the aforementioned formulations, except that 3 wt % of GelSH was included to facilitate cell proliferation. Twenty-five μL precursor solution was cured under UV light (λ=365 nm, 5 mW/cm^2) in an opened 1 mL syringe for 2 minutes. The cell-laden hydrogels were then cultured in regular cell culture media. For hydrogels treated with myosin inhibitor blebbistatin (40 μM, Peprotech) and ROCK inhibitor Y-27632 (10 μM, AdipoGen), the treated culture media was replaced daily to ensure the efficacy of inhibitors.
The cell viability of CAF in hydrogels was evaluated by staining with ethidium homodimer 3. The morphology of CAF in hydrogels was analyzed using F-actin (rhodamine phalloidin 100 nM, Cytoskeleton) and 4′,6-diamidino-2-phenylindole (DAPI) (1:1000, Anaspec) stained images. In the co-encapsulated hydrogels, cells were stained using F-actin (Actin stain 670 phalloidin 200 nM, Cytoskeleton) and DAPI (1:1000). The confocal images (Olympus Fluoview FV100 laser scanning microscope) were z-stacked from 5 μm slices over 100 μm in total.

| Compound | invasive phenotype of PCC cells in co-culture (PCCs/CAFs) | cell morphology of CAFs (CAFs) | F-actin polymerization in CAFs (CAFs) |
| --- | --- | --- | --- |
| C[C@@H](N)[C@H]1CC[C@H](C(=O)Nc2ccncc2)CC1 [Y-27632] | neither the addition of blebbistatin nor Y-27632 altered invasive phenotype | more obvious dendritic extensions of cells | disrupted F-actin polymerization |
| Cc1ccc2c(c1)C(=O)C1(O)CCN(c3ccccc3)C1=N2 (centres unmarked) [blebbistatin] | neither the addition of blebbistatin nor Y-27632 altered invasive phenotype |  | disrupted F-actin polymerization |
